Experimental data published in patent US20220389230A1, “BLAST FURNACE SLAG-TYPE PAINT” (FUKKO CO., LTD., priority 2019, published 2022).
Read-outs that look alike come from different tables or passages of the source.

Tests used:
[1] = Corrosiveness of alkaline substances to aluminum, change in appearance after 24 hours
Procedure: For comparison with the aqueous solution shown in Table 3, a slurry liquid obtained by adding 10 parts by weight of water to 20 parts by weight of ordinary Portland cement was allowed to contact with an aluminum plate (A1050) not subjected to the surface treatment and an aluminum sash frame coated with a sulfuric acid anodized film at the spot, and a change in the appearance after 24 hours was observed.

[2] = pH and heat of dissolution of aqueous solutions that may give an alkaline stimulus (Table 1)
[3] = Table 2; cited from earlier work
[4] = Confirmation of safety: presence or absence of danger (Table 2)
Procedure: The presence or absence of danger was evaluated based on the concentration adjustment work in Table 1 and whether or not it was subject to legal regulations.

Row | Structure (SMILES) | pH of aqueous solution [1] | Generation of heat of dissolution [2] | Existance of legal regulation [3] | Judging danger to human body [4] | odor [4] | Generation of heat of dissolution ([2]; Table 1, concentration adjustment of the aqueous solution)
1 | [K+].[OH-] [Potassium hydroxide] | 15 | Large | Drastic medicine | Very dangerous | Odorless | –
2 | [Ca+2].[OH-].[OH-] [Calcium hydroxide] | 12 | – | No regulation | The risk is small | Odorless | –
3 | N [ammonia] | – | – | Drastic medicine | Very dangerous | Pungent | –
4 | O=C([O-])CC(O)(CC(=O)[O-])C(=O)[O-].[Na+].[Na+].[Na+] [Sodium citrate] | – | – | No regulation | The risk is small | Odorless | –
5 | O=C([O-])[O-].[Na+].[Na+] [sodium carbonate] | 12 | Medium | No regulation | The risk is small | Odorless | –
6 | O=C([O-])[O-].[K+].[K+] [Potassium carbonate] | 11 | Medium | No regulation | The risk is small | Odorless | –
7 | [Na+].[OH-] [Sodium hydroxide] | – | – | Drastic medicine | – | – | Large
